This is an account of results in US5962502A, “Polyamidic acid derivatives with antigastrin activity, a method for their preparation, and their pharmaceutical use” (priority 1993, dated 1999).

As a reminder, the IC50 is the concentration that gives 50% inhibition.

Assay [1] deals with acid secretion induced by pentagastrin. The assay is described as follows: Acid secretion induced by pentagastrin in the anaesthetized rat. Format: in vivo. The conditions noted are these: for ED50: iv, 1 h, I.V. bolus, pentagastrin 30 mcg/kg/h, read-out: Activity (ID50), inhibition of the acid secretion induced by pentagastrin. As to the method:
The activity of the compounds of the invention against gastric secretion performed by means of a mechanism with an antigastrin effect, was examined in vivo in anaesthetized rats with the use of male animals weighing about 200 g. Gastric secretion was stimulated with pentagastrin and Lai's method [Gut 5, (1964), 327-341 ] was used, with slight modification.
After tracheotomy, the oesophagus and duodenum were cannulated. A tepid solution (37° C.) of 0.25 mM NaOH was perfused and was passed through the stomach by means of a peristaltic pump at a constant flow-rate of 1 ml/minute. After stabilization for 20 minutes, the stimulant, dissolved in a physiological solution, was perfused for 120 minutes at a dose of 30 mcg/kg/h, in a volume of 0.95 ml/hour. After perfusion for 60 minutes (the basal stimulation), the product under test was administered intravenously (I.V.) as a bolus and perfusion of the stimulant was continued for a further 60 minutes. The acid secretion was recorded continuously as a function of time.
The activity of the product was evaluated as the percentage reduction of secreted acidity after the administration of the product, in comparison with the basal acidity measured during the first 60 minutes of collection in the presence of pentagastrin alone.
The antagonistic compounds tested were administered in various doses so that an ID50, that is, the dose (in mg/kg I.V.) which could inhibit the effect of pentagastrin by 50%, could be calculated.

Another assay deals with T1, central CCK-B receptor (Cavia porcellus, UniProt H0VZC5).
T1 construct: Cerebral cortices of male white guinea-pigs were thus used; from tissue; host or cells: cerebral cortex membranes of male white guinea-pigs
T1 sequence (H0VZC5 1-426): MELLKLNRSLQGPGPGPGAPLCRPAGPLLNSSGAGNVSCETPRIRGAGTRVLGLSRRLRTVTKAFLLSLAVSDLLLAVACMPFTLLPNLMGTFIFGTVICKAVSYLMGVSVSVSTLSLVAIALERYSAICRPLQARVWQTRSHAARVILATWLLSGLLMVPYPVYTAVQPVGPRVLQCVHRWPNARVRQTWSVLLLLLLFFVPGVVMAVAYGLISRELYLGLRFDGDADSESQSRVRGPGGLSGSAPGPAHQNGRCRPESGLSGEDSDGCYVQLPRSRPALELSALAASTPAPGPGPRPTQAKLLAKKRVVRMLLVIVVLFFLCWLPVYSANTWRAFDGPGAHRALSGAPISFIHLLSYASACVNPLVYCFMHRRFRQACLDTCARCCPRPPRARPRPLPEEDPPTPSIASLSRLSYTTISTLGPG
The assay is described as follows: Inhibition of the binding of [3-H][N-methyl-N-leucine]CCK-8 to guinea-pig cortical membranes. The following applies: guinea-pig cortical membranes; for IC50: 150 minutes at 25° C. Put shortly:
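Male guinea-pig cerebral cortex membranes (about 300 mcg protein/ml) incubated with non-sulphated [3-H]-labelled CCK-8 tracer and compound 150 minutes at 25° C. Pellet radioactivity counted by liquid scintillation; nonspecific binding defined with 5.10^-6 M CCK-8.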

Assay [2] addresses T2, gastrin receptors or type-B cholecystokinin (CCK-B) receptors (Oryctolagus cuniculus, UniProt P46627).
T2 construct: Rabbit gastric mucous-membrane cells were prepared by conventional techniques; endogenous in cells; host or cells: freshly isolated rabbit gastric mucosal cells, enriched by elutriation to about 70% parietal cells
T2 sequence (P46627 1-452): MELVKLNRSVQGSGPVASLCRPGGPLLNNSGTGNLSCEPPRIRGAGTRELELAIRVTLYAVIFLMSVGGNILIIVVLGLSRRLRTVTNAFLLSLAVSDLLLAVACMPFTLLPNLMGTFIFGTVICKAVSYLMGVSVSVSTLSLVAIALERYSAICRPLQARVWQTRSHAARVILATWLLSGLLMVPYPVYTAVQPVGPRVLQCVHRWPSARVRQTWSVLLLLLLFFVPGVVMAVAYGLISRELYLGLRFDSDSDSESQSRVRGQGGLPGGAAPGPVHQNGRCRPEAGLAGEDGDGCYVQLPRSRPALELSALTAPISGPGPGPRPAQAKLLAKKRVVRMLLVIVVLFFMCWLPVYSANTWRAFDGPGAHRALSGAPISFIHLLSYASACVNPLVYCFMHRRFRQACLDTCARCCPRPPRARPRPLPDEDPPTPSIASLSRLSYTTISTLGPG
The assay can be described thus: Inhibition of the gastrin-induced increase of cytosolic calcium in rabbit gastric mucous-membrane cells (Fura 2). Format: cell-based. The conditions noted are these: for Ratio IC50 Binding cortex / IC50 (gastric mucous cells): binding values taken from Table 3; for CCK-B-antagonistic activity IC50 (II): data taken from Table 4 (rabbit gastric mucous cells), reprinted in Table 6; for IC50, inhibition of the increase of cytosolic calcium: rabbit gastric mucous cells enriched in parietal cells, gastrin 5×10^-8; for IC50 order of magnitude, peripheral antigastrin activity: rabbit gastric mucous cells. Put shortly:
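Enzymatically dispersed (collagenase/pronase) rabbit gastric mucosal cells, loaded with Fura 2, were suspended at 0.8×10^6/ml in HEPES-buffered saline at 37 °C with stirring. Gastrin-induced cytosolic Ca²⁺ rise was measured with and without compound by fluorescence (excitation 340/380 nm, emission 505 nm).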

A further assay has as its target T3, CCK-A (Cavia porcellus, UniProt Q63931).
T3 construct: A longitudinal strip of guinea-pig gall-bladder was put in a bath for isolated organs; from tissue; host or cells: guinea-pig gall bladder longitudinal strip
T3 sequence (Q63931 1-430): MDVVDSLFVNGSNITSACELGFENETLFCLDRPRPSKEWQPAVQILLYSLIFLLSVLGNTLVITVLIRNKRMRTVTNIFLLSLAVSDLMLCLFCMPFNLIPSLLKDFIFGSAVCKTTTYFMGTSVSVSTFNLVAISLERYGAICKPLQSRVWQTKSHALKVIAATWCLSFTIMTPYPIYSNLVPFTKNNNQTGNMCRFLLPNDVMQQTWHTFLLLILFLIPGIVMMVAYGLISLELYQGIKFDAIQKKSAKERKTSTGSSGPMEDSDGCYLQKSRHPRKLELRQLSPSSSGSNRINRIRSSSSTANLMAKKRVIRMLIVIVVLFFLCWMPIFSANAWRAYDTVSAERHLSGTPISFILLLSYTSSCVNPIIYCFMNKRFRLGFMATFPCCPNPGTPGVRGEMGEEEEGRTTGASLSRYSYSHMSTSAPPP
The assay is described as follows: Anti-CCK-A activity on guinea-pig gall bladder stimulated in vitro by CCK-8. The following applies: for Ratio I/II (CCK-A IC50 / CCK-B IC50): gall bladder IC50 over gastric mucous cells IC50; for IC50: guinea-pig gall bladder in vitro, CCK-8 10 ng/ml, read-out: CCK-A-antagonistic activity IC50 (I). As to the method: The experimental model used was guinea-pig gall bladder stimulated in vitro by CCK-8, with the use of lorglumide as the reference standard. A longitudinal strip of guinea-pig gall-bladder was put in a bath for isolated organs in the presence of Krebs buffer at a temperature of 32° C., with continuous oxygenation with an oxygen-CO2 mixture (95-[…]). The isometric contractions were detected by means of a force transducer and recorded.

Another assay has as its system CCK-B receptors. The following applies: guinea-pig; Knapp et al; cited from earlier work.

“And” between values parts separate entries of the source, which are not always exact repeats. Equal values may be shown once.

As to `O=C(CC[C@@H](NC(=O)c1cc(Cl)cc(Cl)c1)C(=O)N1CCC2(CCCC2)CC1)N[C@@H](Cc1c[nH]c2ccccc12)C(=O)O` [Compound 20], in assay [1], the ED50 is 10.9 mg/kg and 17.4 µmol/kg. Besides, in assay [1] (pentagastrin-induced acid secretion), the “antigastrin activity relative to the diastereoisomer at the carbon atom (**)” value is “almost the same antigastrin activity”. This compound also yielded an IC50 at central CCK-B receptor of 220 nM. Moreover, in assay [2], the “Ratio IC50 Binding cortex / IC50 (gastric mucous cells)” value (from here on “Ratio IC50 Binding cortex / IC50”) was found to be 7.3; the “CCK-B-antagonistic activity IC50 (II)” value was 30 nM; the “IC50, inhibition of the increase of cytosolic calcium” value amounted to 30 nM. At CCK-A, the “Ratio I/II (CCK-A IC50 / CCK-B IC50)” value was found to be 1397 and the IC50 came out at 41900 nM.
For `O=C(CC[C@@H](NC(=O)c1cc(Cl)cc(Cl)c1)C(=O)N1CCC2(CCCC2)CC1)N[C@H](Cc1cccc2ccccc12)C(=O)O` [Compound 25], the ED50 in assay [1] is 7.1 mg/kg and 11.1 µmol/kg. At central CCK-B receptor, the “inhibition of the binding of [N-methyl-N-leucine]CCK-8, result in words” value is “potent inhibitors” and the half-maximal inhibitory concentration (IC50) worked out at 70 nM. Further, in assay [2], the “Ratio IC50 Binding cortex / IC50” value amounted to 10.0; the “CCK-B-antagonistic activity IC50 (II)” value came out at 7 nM; the “IC50 order of magnitude, peripheral antigastrin activity” value is reported as “nanomolar order of magnitude”; the “IC50, inhibition of the increase of cytosolic calcium” value stood at 7 nM. Besides, on CCK-A, the “Ratio I/II (CCK-A IC50 / CCK-B IC50)” value is 1214 and the 50% inhibitory concentration (IC50) was found to be 8500 nM.
For `O=C(CC[C@@H](NC(=O)c1cc(Cl)cc(Cl)c1)C(=O)N1CCC2(CCCCC2)CC1)N[C@H](Cc1c[nH]c2ccccc12)C(=O)O` [Compound 30], the ED50 in assay [1] is 15.2 mg/kg and 23.7 µmol/kg. On central CCK-B receptor, the “inhibition of the binding of [N-methyl-N-leucine]CCK-8, result in words” value is “potent inhibitors” and the concentration for half-maximal inhibition (IC50) worked out at 100 nM. For the same compound, in assay [2], the “Ratio IC50 Binding cortex / IC50” value is reported as 12.5; the “CCK-B-antagonistic activity IC50 (II)” value amounted to 8 nM; the “IC50 order of magnitude, peripheral antigastrin activity” value is “nanomolar order of magnitude”; the “IC50, inhibition of the increase of cytosolic calcium” value was 8 nM. In addition, on CCK-A, the “Ratio I/II (CCK-A IC50 / CCK-B IC50)” value worked out at 1837 and the IC50 worked out at 14700 nM.
Regarding `O=C(CC[C@@H](NC(=O)c1cc(Cl)cc(Cl)c1)C(=O)N1CCC2(CCCC2)CC1)Nc1ccccc1C(=O)O` [Compound 50], the ED50 in assay [1] was 12 mg/kg and 21.4 µmol/kg. Further, at central CCK-B receptor, the IC50 is 450 nM. Also, in assay [2], the “Ratio IC50 Binding cortex / IC50” value is 15.0 and the “IC50, inhibition of the increase of cytosolic calcium” value turned out to be 30 nM. Moreover, at CCK-A, the “Ratio I/II (CCK-A IC50 / CCK-B IC50)” value came to 160.0 and the IC50 came out at 4800 nM.
“non-sulphated [3-H] [N-methyl-N-leucine]CCK-8”: in the assay on CCK-B receptors, the “affinity for the receptors of the cortex (CCK-B) relative to those of the pancreas (CCK-A)” value is recorded as “approximately 4000 times”.
